Test results from patent US20200199104A1, “Novel Polymorphic Forms of a TGFBeta Inhibitor” (PFIZER INC., priority 2018, published 2020).

Experiment: Critical water activity of solid forms, samples tested by powder X-ray diffraction
Format: physicochemical
Description: Critical water activity is a phase boundary above which a hydrate is a stable form. […] Values of aw. correspond to percent humidity, where the percent humidity is described as 100 x aw. Thus 0.1 aw corresponds to 10% humidity, 0.2 aw corresponds to 20% humidity, and so on. The claimed polymorphic forms of Compound 1 mono-hydrochloride interconvert between Form 1 and Form 2 at a critical water activity of between 0.60 and 0.65 (corresponding to a relative humidity of between 60% and 65%). The critical water activity of the free base form of Compound 1 is between 0.2 and 0.3 (corresponding to a relative humidity between 20% and 30%). It is noted that manufacturing processes are routinely run at relative humidities that exceed 30% relative humidity, but manufacturing processes run at relative humidities of >60% are unusual. Samples were tested using powder X-ray diffraction. Analysis was conducted using a Bruker AXS D8 Endeavor diffractometer equipped with a Cu radiation source. The divergence slit was set at 6 mm continuous illumination. Diffracted radiation was detected by a PSD-Lynx Eye detector, with the detector PSD opening set at 4.104 degrees. The X-ray tube voltage and amperage were set to 40 kV and 40 mA respectively. Data was collected in the Theta-Theta goniometer at the Cu wavelength from 3.0 to 40.0 degrees 2-Theta using a step size of 0.020 degrees and a step time of 0.3 second. Samples were prepared by placing them in a silicon low background sample holder and rotated during collection. Data were collected using Bruker DIFFRAC Plus software and analysis was performed by EVA diffract plus software.

PXRD Result (solid form) (Water Activity at Room Temperature 0.1 aw) | PXRD Result (solid form) (Water Activity at Room Temperature 0.2 aw) | PXRD Result (solid form) (Water Activity at Room Temperature 0.3 aw) | PXRD Result (solid form) (Water Activity at Room Temperature 0.5 aw) | PXRD Result (solid form) (Water Activity at Room Temperature 1.0 Aw) | PXRD Result (solid form) (Water Activity at Room Temperature 0.60 aw) | PXRD Result (solid form) (Water Activity at Room Temperature 0.65 aw) | PXRD Result (solid form) (Water Activity at Room Temperature 0.70 aw) | PXRD Result (solid form) (Water Activity at Room Temperature 0.75 aw) | PXRD Result (solid form) (Water Activity at Room Temperature 0.80 aw) | Compound
free base anhydrous | free base anhydrous | free base monohydrate | free base monohydrate | free base monohydrate |  |  |  |  |  | CC(C)c1cnc(-c2cc(Cl)ccc2F)cc1Nc1ccncc1C(=O)NC(CO)CO [Compound 1, Free Base, 4-(2-(5-chloro-2-fluorophenyl)-5-isopropylpyridin-4-ylamino)-N-(1,3-dihydroxypropan-2-yl)nicotinamide]
 |  |  |  |  | Form 1 | Form 2 | Form 2 | Form 2 | Form 2 | CC(C)c1cnc(-c2cc(Cl)ccc2F)cc1Nc1ccncc1C(=O)NC(CO)CO.Cl [Compound 1, mono-HCl salt, 4-(2-(5-chloro-2-fluorophenyl)-5-isopropylpyridin-4-ylamino)-N-(1,3-dihydroxypropan-2-yl)nicotinamide mono hydrochloride]
